Measured values taken from patent US20250346938A1, “ATP-DEPENDENT C-TERMINAL MODIFICATION OF POLYPEPTIDES” (Wisconsin Alumni Research Foundation, priority 2024, published 2025).
Ends that are not written are not given here.

Assays:
HsM ccB = experiment: H. somni MccB-catalyzed peptide thioester synthesis; assay type: biochemical; settings: for thioesterification: Mesna as thiol donor
Procedure: Reactions were incubated for 16 hours at room temperature and quenched with addition of an equivalent volume of 0.6% TFA. […] To screen the ability of H. somni M ccB to catalyze thioesterification of HsLACE peptides, reactions contained M ccB ([…]), ATP (5 mM), M gCl2 (5 mM), peptide substrate (0.25 mM), 25 mM M esna or AcCysNHM e, and reaction buffer (100 mM HEPES, pH 8.0).
H. somni M ccB-catalyzed peptide thioester synthesis. For screening the activity of HsM ccB on HsTeCH, HsLACE1-4, and LACE substrate peptide, […] reactions were prepared that contained 100 mM HEPES, pH 8.0, HsM ccB ([…]), HsTeCH, HsLACE1-4, or LACE peptide ([…]), ATP (5 mM), M gCl2 (5 mM), and thiol (M esna or AcCysNHMe, 25 mM). Reactions were initiated by addition of HsM ccB and incubated for 16-20 h at room temperature. Raw data are available in the Dryad repository at DOI: 10.5061/dryad.c59zw3rkb.

M ccB [1] = experiment: Screening nucleophiles for MccB-mediated modification of MccA-N7G (LC-TOF MS); assay type: biochemical, E. coli; settings: HPLC-MS
Procedure: Screening nucleophiles for MccB-mediated ligation of synthetic peptide substrates. Nucleophile were dissolved in water and adjusted to neutral pH using paper pH strips (EM D Millipore). Solutions were stored at −80° C. until further use, unless otherwise noted. M ccA-N7G (250 μM) was incubated with 5 μM MccB, 5 mM ATP, and the corresponding concentration of nucleophile in reaction buffer (25 mM Tris pH 8.0, 10 mM M gCl2). Reactions were incubated for 16 hours at room temperature and quenched with addition of an equivalent volume of 0.6% TFA. […] Extracted ion chromatogram (EIC) peak areas were calculated using Agilent TOF Quantitative Analysis v11.0. Percent conversion of substrate to nucleophile-modified product was calculated using the integrated peak areas from the substrate peptide EIC and production EIC using the formula shown below.

HpM ccB = experiment: C-terminal thioesterification of MccA-N7G peptides by H. pylori MccB (LC-MS); assay type: biochemical; settings: HpMccB, ATP, Mesna, 16 h
E. coli M ccB [2] = experiment: LC-TOF MS analysis of MccB-catalyzed AMPylation of MccA variants; assay type: biochemical; settings: for formation of stably AMPylated product: HPLC-MS assay
Procedure: LC-TOF MS analysis of M ccB reactions with synthetic peptide substrates. […] Reactions were incubated for 16 hours at room temperature and quenched with addition of an equivalent volume of 0.6% TFA. These reaction conditions were used for M ccBs from E. coli, H. pylori, L. johnsonii, and H. somni.
LC-TOF MS analysis of M ccB-catalyzed N-AM Pylation of M ccA positional scanning peptide library. MccA variants were synthesized individually in-house (according to Solid-phase peptide synthesis) or were purchased from Peptide2.0. […] Reactions were incubated for 16 hours at room temperature and quenched with addition of an equivalent volume of 0.6% TFA. […] Percent conversion was calculated using peak areas from substrate and product EICs. Raw data are available in the Dryad repository at DOI: 10.5061/dryad.c59zw3rkb.

E. coli M ccB [3] = experiment: Enzyme-coupled pyrophosphate (PPi) release assay, E. coli MccB; assay type: biochemical; settings: MccA C-terminal variant as substrate for MccB
Excerpt: FIG. 31. Enzyme-coupled pyrophosphate assay for detection of M ccB-catalyzed pyrophosphate release. M ccB-catalyzes release of pyrophosphate, which is converted to phosphate by inorganic pyrophosphatase (PPiase). Purine nucleoside phosphorylase (PN Pase) uses phosphate as a substrate to convert 2-amino-6-mercapto-7-methylpurine ribonucleoside (M ESG) to ribose 1-phosphate and 2-amino-6-mercapto-7-methylpurine, which absorbs at 360 nm.
Purine nucleoside phosphorylase (PNP)/inorganic pyrophosphate (IP)-coupled kinetic assays. The kinetics of M ccB-catalyzed adenylation were characterized using an enzyme-coupled assay for detecting formation of pyrophosphate EnzCheck Pyrophosphate Assay Kit (Thermo Fisher Scientific) (FIG. 31). To screen M ccB for adenylation activity with C-terminal variants of MccA, 5 μM of the appropriate MccB variant was incubated with 0.25 mM of each M ccA variant in a reaction with 0.25 mM ATP, 5 mM M gCl2, 0.5 U/mL purine nucleoside phosphorylase (PNP), and 0.5 U/mL inorganic pyrophosphatase (IP). To screen E. coli, H. pylori, and L. johnsonii M ccB homologs for adenylation activity with MccA homologs, 5 μM of the appropriate MccB enzyme was incubated with 0.25 mM of each M ccA variant in a reaction with 0.25 mM ATP, 5 mM M gCI2, 0.5 U/mL purine nucleoside phosphorylase (PNP), and 0.5 U/mL inorganic pyrophosphatase (IP). Reactions containing HpM ccA-N7G and LjM ccA-N 7G peptides also contained 5 mM M esna and 5 mM TCEP. To collect steady-state kinetics data for individual peptide substrates, the peptide concentration was varied from 0-600 μM in a reaction with 5 μM MccB, 0.25 mM ATP, 5 mM MgCl2, 0.5 U/mL purine nucleoside phosphorylase (PNP), and 0.5 U/mL inorganic pyrophosphatase (IP). […] We therefore repeated measurements for the MccA-N7G peptide using an MccB concentration of […] and a substrate concentration range from 0-100 μM. Reactions were initiated with the addition of M ccB and absorbance at 360 nm was monitored using a Tecan Infinite M 200 plate reader. Initial rates of pyrophosphate production were calculated based on the initial rate of absorbance change and the resulting purine analog extinction coefficient (11,000 M-1 cm-1). Reactions were carried out in triplicate and data analysis was performed using GraphPad Prism 10.

M ccB [4] = experiment: MccB-catalyzed C-terminal thioesterification / Cys ligation of TeCH-tag fusion proteins (intact protein LC-MS); assay type: biochemical, E. coli; settings: ATP (5 mM), Mesna (5 mM)
Procedure: M ccB-mediated ligation of GFP-MccA-N7G protein substrates. GFP-M ccA-N7G variant (50 μM) was incubated with 5 μM MccB, 5 mM ATP, and the appropriate concentration of cysteine or Mesna/TCEP in reaction buffer (25 mM Tris pH 8.0, 10 mM M gCl2). Reactions were incubated at room temperature for the indicated times. For labeling time course experiments, reactions were quenched with the addition of an equivalent volume of 0.6% TFA.

Sequence of HpM ccB (as listed by the source): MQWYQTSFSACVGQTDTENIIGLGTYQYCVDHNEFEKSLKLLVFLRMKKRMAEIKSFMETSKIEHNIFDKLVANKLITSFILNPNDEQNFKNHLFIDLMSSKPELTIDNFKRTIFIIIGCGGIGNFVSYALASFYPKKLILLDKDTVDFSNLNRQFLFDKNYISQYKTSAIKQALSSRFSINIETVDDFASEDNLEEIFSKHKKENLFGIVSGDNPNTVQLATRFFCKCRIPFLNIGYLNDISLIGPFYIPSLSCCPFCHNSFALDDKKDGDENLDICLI

CNC(=O)[C@H](CS)NC(C)=O [A cCysNHM e]
thiol donor for HsMccB-catalyzed thioesterification (HsM ccB): poor thiol donor

O=C(O)Cc1ccc(S)cc1 [M PAA, 4-mercaptophenylacetic acid]
capture of O-AMPylated intermediate / modification of MccA-N7G C terminus by nucleophile (M ccB [1]): inability

C#CCCNC(=O)c1ccc(CCNN)cc1 [N-(but-3-yn-1-yl)-4-(2-hydrazineylethyl)benzamide]
capture of O-AMPylated intermediate / modification of MccA-N7G C terminus by nucleophile (M ccB [1]): unable to modify

Cl.NO [hydroxylamine, hydroxylamine hydrochloride]
capture of O-AMPylated intermediate / modification of MccA-N7G C terminus by nucleophile (M ccB [1]): efficient capture

Cys-Trp
capture of O-AMPylated intermediate / modification of MccA-N7G C terminus by nucleophile (M ccB [1]): no modification

LRLRGG (not fully specified (C-terminus))
thioesterification (HsM ccB): 18%

M KLSY RG (MKLSYRG) [HpM ccA-N7G]
conversion to C-terminal thioester, yield (HpM ccB): > 97%

MHRIMKN (listed as Lactobacillus johnsonii) [LjM ccA, at b127 probably the N7G variant is meant, reference compound]
conversion to C-terminal thioester, yield (HpM ccB): 13%

MLRLRGG (listed as Histophilus somni) [HsLACE4]
thioesterification (HsM ccB): < 1%

MRTGNAN (listed as Escherichia coli) [wild-type M ccA, reference compound]
formation of C-terminally N-AMPylated phosphoramidate product (E. coli M ccB [2]; positional scanning library, 16 h): fully converted

MccA-N7A: E. coli MccA (MRTGNAN) with C-terminal Asn varied to Ala (MRTGNAA)
stimulation of PPi formation (E. coli M ccB [3]): substantial stimulation
formation of stably AMPylated product (E. coli M ccB [2]): no stably A M Pylated product was observed

MccA-N7S: E. coli MccA (MRTGNAN) with C-terminal Asn varied to Ser (MRTGNAS)
stimulation of PPi formation (E. coli M ccB [3]): substantial stimulation
formation of stably AMPylated product (E. coli M ccB [2]): no stably A M Pylated product was observed

MccA-N7T: E. coli MccA (MRTGNAN) with C-terminal Asn varied to Thr (MRTGNAT)
stimulation of PPi formation (E. coli M ccB [3]): substantial stimulation
formation of stably AMPylated product (E. coli M ccB [2]): no stably A M Pylated product was observed

B1: protein L: protein L with C-terminal TeCH-tag (SEQ ID NO: 75) (protein)
chain: MHHHHHHKEETPETPETDSEEEVTIKANLIFANGSTQTAEFKGTFEKATSEAYAYADTLKKDNGEYTVDVADKGYTLNIKFAGKEKTPEEPKEEVTIKANLIYADGKTQTAEFKGTFEEATAEAYRYADALKKDNGEYTVDVADKGYTLNIKFAGKEKTPEEPKEEVTIKANLIYADGKTQTAEFKGTFEEATAEAYRYADLLAKENGKYTVDVADKGYTLNIKFAGKEKTPEEPKEEVTIKANLIYADGKTQTAEFKGTFAEATAEAYRYADLLAKENGKYTADLEDGGYTINIRFAGKKVDEKPEEKEQVTIKENIYFEDGTVQTATFKGTFAEATAEAYRYADLLSKEHGKYTADLEDGGYTINIRFAGGGGSGGGSMRTGNAG
modifications: C-terminal TeCH-tag; Linker and MccB recognition sequence
time to complete conversion to thioester (M ccB [4]): 16 h

B2: PTP 1B 1-321: catalytic domain of protein tyrosine phosphatase 1B with TeCH-tag (SEQ ID NO: 76) (protein)
chain: MGHHHHHHDYDIPTTENLYFQGSMEMEKEFEQIDKSGSWAAIYQDIRHEASDFPCRVAKLPKNKNRNRYRDVSPFDHSRIKLHQEDNDYINASLIKMEEAQRSYILTQGPLPNTCGHFWEMVWEQKSRGVVMLNRVMEKGSLKCAQYWPQKEEKEMIFEDTNLKLTLISEDIKSYYTVRQLELENLTTQETREILHFHYTTWPDFGVPESPASFLNFLFKVRESGSLSPEHGPVVVHCSAGIGRSGTFCLADTCLLLMDKRKDPSSVDIKKVLLEMRKFRMGLIQTADQLRFSYLAVIEGAKFIMGDSSVQDQWKELSHEDLEPPPEHIPPPPRPPKRILEPHNGGGGMRTGNAG
modifications: TeCH-tag; N-terminal His tag and TEV protease cleavage site sequence; Linker and MccB recognition sequence
time to complete conversion to thioester (M ccB [4]): 1 h

B3: a-GFP rAb (protein)
light: SDIQMTQSPSSLSASVGDRVTITCRASQSVSSAVAWYQQKPGKAPKLLIYSASSLYSGVPSRFSGSRSGTDFTLTISSLQPEDFATYYCQQSWGLITFGQGTKVEIKRTVAAPSVFIFPPSDSQLKSGTASVVCLLNNFYPREAKVQWKVDNALQSGNSQESVTEQDSKDSTYSLSSTLTLSKADYEKHKVYACEVTHQGLSSPVTKSFNRGEC
heavy: EISEVQLVESGGGLVQPGGSLRLSCAASGFNISYYSIHWVRQAPGKGLEWVASIYPYYSSTSYADSVKGRFTISADTSKNTAYLQMNSLRAEDTAVYYCARAGWVASSGMDYWGQGTLVTVSSASTKGPSVFPLAPSSKSTSGGTAALGCLVKDYFPEPVTVSWNSGALTSGVHTFPAVLQSSGLYSLSSVVTVPSSSLGTQTYICNVNHKPSNTKVDKKVEPKSCGGGGGMRTGNAGAFAGAGSK
modifications: non-natural residues; cyclised or stapled
time to complete conversion to thioester (M ccB [4]): 16 h
